Laboratory results taken from patent US12275729B2 (Merck Sharp & Dohme LLC, priority 2017, dated 2025).

What follows are molecules tested against IDO1 (Homo sapiens, UniProt P14902) (assay: IDO1 Cellular Assay in HeLa Cells Stimulated with IFNγ). Conditions: about 48 hours, read-out: Hela IC50.
Format: cell-based
Experimental: Biological Assays IDO1 Cellular Assay in HeLa Cells Stimulated with IFNγ
HeLa cells were cultured in complete HeLa culture medium (90% EMEM, 10% heat-inactivated fetal bovine serum) and expanded to about 1×10^9 cells. The cells were then collected and frozen down at 1×10^7 cells/vial in 1 mL frozen medium (90% complete HeLa culture medium, 10% DMSO).
Compounds to be tested were serially diluted in ten 3-fold steps in DMSO starting from 10 mM DMSO stocks in Echo low volume plate(s).
Frozen HeLa cells were thawed and transferred into HeLa assay medium (99% complete HeLa culture medium, 1% Pen/Strep) with 20 mL medium/vial of cells. The cells were spun down at 250 g in a table top centrifuge for 5 min and suspended in same volume of HeLa assay medium. The cells were then counted and adjusted to a density of 2×10^5 cells/mL in HeLa assay medium. Sterile L-tryptophan were added to the cells with final concentration of 300 uM L-tryptophan. A small aliquot (2 mL/plate) of HeLa cells were set aside and were not treated with IFNγ, to serve as the Max-E control.
HeLa cells with and without IFNγ were dispensed to the respective wells of 384-well assay plates containing the compounds. The plates were incubated for about 48 hours at a 37° C., 5% CO2 incubator. Afterwards, 12 μL of 0.5 M methyl isonipecotate in dimethyl sulfoxide were added into each well and the plates were sealed and incubated at 37° C. without CO2 overnight. The plates were centrifuged for 1 min at 200×g. The resulting fluorescence was measured in a Spectramax plate reader (Molecular Devices) with a 400 nm excitation filter and a 510 nm emission filter.
Potencies were calculated by […] least squares fit to the four parameter logistic IC50 equation.

Sequence of IDO1 (P14902 whole entry): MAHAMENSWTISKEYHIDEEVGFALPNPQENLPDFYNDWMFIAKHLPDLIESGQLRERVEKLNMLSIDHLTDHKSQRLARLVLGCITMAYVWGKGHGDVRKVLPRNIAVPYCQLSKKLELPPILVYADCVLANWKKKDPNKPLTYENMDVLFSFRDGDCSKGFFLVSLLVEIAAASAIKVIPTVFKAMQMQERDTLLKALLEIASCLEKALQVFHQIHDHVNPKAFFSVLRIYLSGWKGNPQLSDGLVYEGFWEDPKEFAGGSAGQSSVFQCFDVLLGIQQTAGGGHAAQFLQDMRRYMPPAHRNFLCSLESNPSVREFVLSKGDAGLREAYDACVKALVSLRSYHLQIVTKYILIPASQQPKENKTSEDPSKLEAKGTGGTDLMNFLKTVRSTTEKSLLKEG

IC50	Structure (SMILES)
0.0399 µM	Cn1cc(C(=O)N2CCCc3nc(C4(NC(=O)c5ccc(F)cc5)CC4)ccc32)cn1 [Example 173, 4-fluoro-N-{1-[5-(1-methyl-1H-pyrazole-4-carbonyl)-5,6,7,8-tetrahydro-1,5-naphthyridin-2-yl]cyclopropyl}benzamide]
0.0246 µM	CC(C)NC(=O)N1CCCc2nc([C@@H](C)C(=O)Nc3ccc(F)cc3)ccc21 [Example 217, 6-{(2R)-1-[(4-fluorophenyl)amino]-1-oxopropan-2-yl}-N-(propan-2-yl)-3,4-dihydro-1,5-naphthyridine-1(2H)-carboxamide]
0.0341 µM	CS(=O)(=O)N1CCCc2cc(C3(C(=O)Nc4ccc(F)cn4)CCC3)ccc21 [Example 123, N-(5-fluoropyridin-2-yl)-1-[1-(methylsulfonyl)-1,2,3,4-tetrahydroquinolin-6-yl]cyclobutane-1-carboxamide]
0.0059 µM	Cc1nc(C(=O)N2CCCc3cc(C(C)C(=O)Nc4ccc(F)cc4)ccc32)co1 (centres unmarked) [Example 45, N-(4-fluorophenyl)-2-[1-(2-methyl-1,3-oxazole-4-carbonyl)-1,2,3,4-tetrahydroquinolin-6-yl]propanamide]
0.0139 µM	O=C(NC1(c2ccc3c(n2)CCCN3c2ccccn2)CC1)c1ccc(F)cc1 [Example 247, 4-fluoro-N-(1-(5-(pyridin-2-yl)-5,6,7,8-tetrahydro-1,5-naphthyridin-2-yl)cyclopropyl)benzamide]
0.0705 µM	CC(NC(=O)c1ccc(F)cc1)c1ccc2c(n1)CCCN2CC1CC1 (centres unmarked) [Example 227, N-{1-[5-(cyclopropylmethyl)-5,6,7,8-tetrahydro-1,5-naphthyridin-2-yl]ethyl}-4-fluorobenzamide]
0.0355 µM	CC(NC(=O)c1ccc(F)cc1)c1ccc2c(n1)CCCN2C(=O)C1CCOCC1 (stereo in doubt) [Example 146, 4-fluoro-N-{(1R)-1-[5-(oxane-4-carbonyl)-5,6,7,8-tetrahydro-1,5-naphthyridin-2-yl]ethyl}benzamide]
0.348 µM	CC(NC(=O)c1ccc(F)cc1)c1ccc2c(n1)CCCN2C(=O)C1(C)CCCCO1 (stereo in doubt) [Example 139, 4-fluoro-N-(1-{5-[(2S)-2-methyloxane-2-carbonyl]-5,6,7,8-tetrahydro-1,5-naphthyridin-2-yl}ethyl)benzamide]
0.0031 µM	C[C@H](C(=O)Nc1ccc(F)cc1)c1ccc2c(c1)CCCN2C(=O)[C@@H]1CCCCO1 (single isomer, unassigned) [Example 88]
0.0143 µM	Cc1cc(N2CCCc3nc(C4(NC(=O)c5ccc(F)cc5)CC4)ccc32)ccn1 [Example 243, 4-fluoro-N-{1-[5-(2-methylpyridin-4-yl)-5,6,7,8-tetrahydro-1,5-naphthyridin-2-yl]cyclopropyl}benzamide]
0.0162 µM	Cc1n[nH]c(C(=O)N2CCCc3cc(C4(C(=O)Nc5ccc(F)cc5)CCC4)ccc32)n1 [Example 109, N-(4-fluorophenyl)-1-[1-(3-methyl-1H-1,2,4-triazole-5-carbonyl)-1,2,3,4-tetrahydroquinolin-6-yl]cyclobutane-1-carboxamide]
0.00215 µM	Cc1nccc(N2CCCc3nc(C4(C(=O)Nc5ccc(F)cc5)CCC4)ccc32)n1 [Example 403, N-(4-fluorophenyl)-1-(5-(2-methylpyrimidin-4-yl)-5,6,7,8-tetrahydro-1,5-naphhyridin-2-yl)cyclobutane-1-carboxamide]

Further lines, the molecule ahead of its results:

Structure (SMILES)	IC50
C[C@H](C(=O)Nc1ccc(F)cn1)c1ccc2c(c1)CCCN2C(=O)c1cccc(Cl)c1 (single isomer, unassigned) [Example 54]	0.018 µM
CC(C(=O)Nc1ccc(F)cc1)c1ccc2c(c1)CCCN2C(=O)C1CC1 (centres unmarked) [Example 36, 2-[1-(cyclopropanecarbonyl)-1,2,3,4-tetrahydroquinolin-6-yl]-N-(4-fluorophenyl)propanamide]	0.0058 µM
CC(NC(=O)c1ccc(F)cc1)c1ccc2c(c1)CCCN2C(CO)c1cccc(Cl)c1 (single isomer, unassigned) [Example 94]	0.236 µM
C[C@H](C(=O)Nc1ccc(F)cn1)c1ccc2c(c1)CCCN2C(=O)C1(F)CC1 (single isomer, unassigned) [Example 63]	0.0165 µM
C[C@H](C(=O)Nc1ccc(F)cc1)c1ccc2c(c1)CCCN2C(=O)CC#N [Example 85, (2S)-2-[1-(cyanoacetyl)-1,2,3,4-tetrahydroquinolin-6-yl]-N-(4-fluorophenyl)propanamide]	2.54 µM
Cc1cc(C(=O)NCc2ccc3c(c2)CCCN3C(=O)c2cccc(Cl)c2)on1 [Example 20, N-{[1-(3-chlorobenzene-1-carbonyl)-1,2,3,4-tetrahydroquinolin-6-yl]methyl}-3-methyl-1,2-oxazole-5-carboxamide]	0.0596 µM
CC(C(=O)Nc1ccc(F)cc1)c1ccc2c(c1)CCCN2C(=O)C1CCCCO1 (centres unmarked) [Example 37, N-(4-fluorophenyl)-2-[1-(oxane-2-carbonyl)-1,2,3,4-tetrahydroquinolin-6-yl]propanamide]	0.0048 µM
C[C@@H](NC(=O)c1ccc(F)cc1)c1ccc2c(c1)CCCN2C(=O)C1(F)CC1 (single isomer, unassigned) [Example 31]	1.23 µM
CCn1ccc(C(=O)NCc2ccc3c(c2)CCCN3C(=O)c2cccc(Cl)c2)n1 [Example 24]	0.0998 µM
CC(C)CC(=O)N1CCCc2cc(CNC(=O)c3ccc(F)c(F)c3)ccc21 [Example 10, 3,4-difluoro-N-{[1-(3-methylbutanoyl)-1,2,3,4-tetrahydroquinolin-6-yl]methyl}benzamide]	0.161 µM
CC(C)C(=O)N1CCCc2cc([C@H](C)C(=O)Nc3ccc(F)cc3)ccc21 [Example 83, (2S)-N-(4-fluorophenyl)-2-[1-(2-methylpropanoyl)-1,2,3,4-tetrahydroquinolin-6-yl]propanamide]	0.0094 µM
CC(NC(=O)c1ccc(F)cc1)c1ccc2c(n1)C(O)CCN2C(=O)C1CC1 (single isomer, unassigned) [Example 197, N-(1-(5-(cyclopropanecarbonyl)-8-hydroxy-5,6,7,8-tetrahydro-1,5-naphthyridin-2-yl)ethyl)-4-fluorobenzamide]	0.29 µM
O=C(N1CCCC1)N1CCCc2cc(C3(C(=O)Nc4ccc(F)cn4)CCC3)ccc21 [Example 103, N-(5-fluoropyridin-2-yl)-1-[1-(pyrrolidine-1-carbonyl)-1,2,3,4-tetrahydroquinolin-6-yl]cyclobutane-1-carboxamide]	0.0767 µM
C[C@H](C(=O)Nc1ccc(F)cc1)c1ccc2c(c1)CCCN2C(=O)CCOC(C)(C)C [Example 70, (2S)-2-[1-(3-tert-butoxypropanoyl)-1,2,3,4-tetrahydroquinolin-6-yl]-N-(4-fluorophenyl)propanamide]	3.38 µM
CCc1nc(C(=O)NCc2ccc3c(c2)CCCN3C(=O)c2cccc(Cl)c2)co1 [Example 23, N-{[1-(3-chlorobenzene-1-carbonyl)-1,2,3,4-tetrahydroquinolin-6-yl]methyl}-2-ethyl-1,3-oxazole-4-carboxamide]	0.0776 µM
C[C@H](C(=O)Nc1ccc(F)cn1)c1ccc2c(c1)CCCN2C(=O)C1CC1 (single isomer, unassigned) [Example 61]	0.0094 µM
CC(=O)N1CC(C(=O)N2CCCc3cc([C@H](C)C(=O)Nc4ccc(F)cc4)ccc32)C1 [Example 69, (2S)-2-[1-(1-acetylazetidine-3-carbonyl)-1,2,3,4-tetrahydroquinolin-6-yl]-N-(4-fluorophenyl)propanamide]	9.02 µM

Same assay, conditions: read-out: Hela IC50

IC50	Structure (SMILES)
0.0414 µM	C[C@H](NC(=O)c1ccc(F)cc1)c1ccc2c(n1)CCCN2c1cccc(=O)[nH]1 [Example 386, (S)-2-(1-(4-fluorobenzamido)ethyl)-5-(6-oxo-1,6-dihydropyridin-2-yl)-5,6,7,8-tetrahydro-1,5-naphthyridin-1-ium 2,2,2-trifluoroacetate]
0.0772 µM	CC(C)Oc1cccc(N2CCCc3nc(C(C)NC(=O)c4ccc(Cl)cc4)ccc32)n1 (centres unmarked) [Example 353, 4-chloro-N-(1-(5-(6-isopropoxypyridin-2-yl)-5,6,7,8-tetrahydro-1,5-naphthyridin-2-yl)ethyl)benzamide]
0.00073 µM	O=C(OC1CC1)N1CCCc2nc(C3(C(=O)Nc4ccc(Cl)cc4)CCC3)ccc21 [Example 411, cyclopropyl 6-(1-((4-chlorophenyl)carbamoyl)cyclobutyl)-3,4-dihydro-1,5-naphthyridine-1(2H)-carboxylate]
0.697 µM	CC(NC(=O)c1ccc(F)cc1)c1ccc2c(n1)CCCN2c1cc2n(n1)CCC2 (centres unmarked) [Example 369, N-(1-(5-(5,6-dihydro-4H-pyrrolo[1,2-b]pyrazol-2-yl)-5,6,7,8-tetrahydro-1,5-naphthyridin-2-yl)ethyl)-4-fluorobenzamide]

More lines, now with the values behind:

Structure (SMILES)	IC50
CCCOCCOC(=O)N1CCCc2nc(C(C)NC(=O)c3ccc(F)cc3)ccc21 (centres unmarked) [Example 323, 2-propoxyethyl 6-(1-(4-fluorobenzamido)ethyl)-3,4-dihydro-1,5-naphthyridine-1(2H)-carboxylate]	0.0044 µM
COc1ccc(C(=O)NC(C)c2ccc3c(n2)CCCN3C(=O)OC2CC2)cc1 (centres unmarked) [Example 338, cyclopropyl 6-(1-(4-methoxybenzamido)ethyl)-3,4-dihydro-1,5-naphthyridine-1(2H)-carboxylate]	0.161 µM
